pIC50: −log10 of the molar value.

The assay has as its target T1, human recombinant HDAC6 (Homo sapiens, UniProt Q9UBN7).
T1 construct: purchased Calbiochem 382180
T1 sequence (Q9UBN7 1-1215): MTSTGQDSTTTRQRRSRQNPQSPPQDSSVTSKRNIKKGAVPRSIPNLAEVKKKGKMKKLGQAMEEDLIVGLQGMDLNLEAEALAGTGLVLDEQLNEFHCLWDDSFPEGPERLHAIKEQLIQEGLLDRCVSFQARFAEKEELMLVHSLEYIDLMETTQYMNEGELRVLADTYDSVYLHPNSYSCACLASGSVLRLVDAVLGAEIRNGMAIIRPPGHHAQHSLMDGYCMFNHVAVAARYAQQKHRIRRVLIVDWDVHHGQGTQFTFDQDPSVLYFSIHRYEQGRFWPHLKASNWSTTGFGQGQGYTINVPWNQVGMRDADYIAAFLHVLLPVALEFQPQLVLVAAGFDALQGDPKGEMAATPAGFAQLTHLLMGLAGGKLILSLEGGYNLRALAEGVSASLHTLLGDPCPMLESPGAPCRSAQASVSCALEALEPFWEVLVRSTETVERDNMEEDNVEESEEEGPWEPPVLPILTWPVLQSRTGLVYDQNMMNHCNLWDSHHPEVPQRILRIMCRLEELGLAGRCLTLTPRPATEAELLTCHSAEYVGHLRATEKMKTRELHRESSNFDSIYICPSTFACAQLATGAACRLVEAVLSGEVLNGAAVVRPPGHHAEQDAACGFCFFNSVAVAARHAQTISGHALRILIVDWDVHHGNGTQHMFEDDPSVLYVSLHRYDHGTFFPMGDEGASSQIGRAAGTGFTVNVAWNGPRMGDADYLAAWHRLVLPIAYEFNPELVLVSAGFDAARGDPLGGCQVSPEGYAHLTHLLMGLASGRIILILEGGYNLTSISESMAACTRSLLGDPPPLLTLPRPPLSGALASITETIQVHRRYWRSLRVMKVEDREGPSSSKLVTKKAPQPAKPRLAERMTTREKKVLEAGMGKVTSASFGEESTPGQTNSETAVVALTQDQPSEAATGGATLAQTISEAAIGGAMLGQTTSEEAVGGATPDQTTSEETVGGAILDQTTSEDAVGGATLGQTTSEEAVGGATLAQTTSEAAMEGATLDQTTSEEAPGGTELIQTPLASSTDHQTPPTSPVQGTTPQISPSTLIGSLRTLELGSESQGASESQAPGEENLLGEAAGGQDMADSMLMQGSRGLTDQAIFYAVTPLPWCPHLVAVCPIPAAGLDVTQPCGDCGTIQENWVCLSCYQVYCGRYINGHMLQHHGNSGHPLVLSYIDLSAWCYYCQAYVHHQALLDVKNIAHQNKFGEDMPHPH
The experiment in a line: HDAC enzyme activity inhibition assay (HDAC6, fluorimetric kit). In kind it is biochemical. Particulars: for HDAC6 selectivity (fold): HDAC6 versus HDAC1; for pIC50: same protocol as the HDAC1 test. The method, then:
In order to examine the HDAC6 selectivity of the compounds of formula I of the present invention by HDAC1 and HDAC6 enzymatic activity inhibition assays, an experiment was performed using a conventional substance as a control. HDAC enzyme activity was measured using a HDAC Fluorimetric Drug Discovery Kit (BML-AK511, 516) from Enzo Life Science. For the HDAC1 enzyme activity test, human recombinant HDAC1 (BML-SE456) was used as an enzyme source, and Fluor de Lys®-“SIRT1 (BNL-KI177) was used as a substrate. A 5-fold dilution of the compound was seeded into a 96-well plate, and then 0.3 μg of the enzyme and 10 μM of the substrate were added to each well of the plate and allowed to react at 30° C. for 60 minutes. Then, Fluor de Lys®-Developer II (BML-KI176) was added thereto and allowed to react for 30 minutes, after which the fluorescence value (Ex 360, Em 460) was measured using a multi-plate reader (Flexstation 3, Molecular Device). The HDAC6 enzyme was tested using human recombinant HDAC6 (382180) from Calbiochem, according to the same protocol as the HDAC1 enzyme activity test method. Based on the resulting values, each IC50 value was calculated using GraphPad Prism4.0 program.

Broadly, the pIC50 is the negative decadic logarithm of the IC50, by convention in mol/L. Take `O=C(c1ccncc1)N(Cc1ccc(-c2nnc(C(F)(F)F)o2)cc1)c1ccccc1` [Compound 11022, N-phenyl-N-(4-(5-(trifluoromethyl)-1,3,4-oxadiazol-2-yl)benzyl)isonicotinamide]: the “HDAC6 selectivity (fold)” value is listed as 427 fold and the pIC50 is 6.63.

`CC(=O)N(Cc1ccc(-c2nnc(C(F)(F)F)o2)cc1)c1ccccc1` [Compound 11105, N-phenyl-N-(4-(5-(trifluoromethyl)-1,3,4-oxadiazol-2-yl)benzyl)acetamide]: the “HDAC6 selectivity (fold)” value came out at 524 fold and the pIC50 was 6.72.

Regarding `O=C(C1CCCCC1)N(Cc1ccc(-c2nnc(C(F)(F)F)o2)cc1)c1ccccc1` [Compound 11106, N-phenyl-N-(4-(5-(trifluoromethyl)-1,3,4-oxadiazol-2-yl)benzyl)cyclohexanecarboxamide], the “HDAC6 selectivity (fold)” value is 77 fold and the pIC50 was 5.89.

Consider `O=C(c1ccccc1)N(Cc1ccc(-c2nnc(C(F)(F)F)o2)cc1)c1ccccc1` [Compound 11107, N-phenyl-N-(4-(5-(trifluoromethyl)-1,3,4-oxadiazol-2-yl)benzyl)benzamide], for which the “HDAC6 selectivity (fold)” value is given as 196 fold and the pIC50 is 6.29.

In the case of `O=C(c1ccncc1)N(Cc1ccc(-c2nnc(C(F)F)o2)cc1)c1ccccc1` [Compound 11108, N-(4-(5-(difluoromethyl)-1,3,4-oxadiazol-2-yl)benzyl)-N-phenylisonicotinamide], the “HDAC6 selectivity (fold)” value came out at 1695 fold and the pIC50 was 7.23.

Take `O=C(c1ccncc1)N(Cc1ccc(-c2nnc(C(F)(F)F)o2)cc1F)c1ccccc1` [Compound 11109, N-(2-fluoro-4-(5-(trifluoromethyl)-1,3,4-oxadiazol-2-yl)benzyl)-N-phenylisonicotinamide]: the “HDAC6 selectivity (fold)” value amounted to 1818 fold and the pIC50 was 7.26.

On to `O=C(c1ccncc1)N(Cc1ccc(-c2nnc(C(F)F)o2)cc1F)c1ccccc1` [Compound 11110, N-(4-(5-(difluoromethyl)-1,3,4-oxadiazol-2-yl)-2-fluorobenzyl)-N-phenylisonicotinamide], for which the “HDAC6 selectivity (fold)” value stood at 2000 fold and the pIC50 was 7.30.

For the compound `CC(C)(C)OC(=O)N1CC(C(=O)N(Cc2ccc(-c3nnc(C(F)(F)F)o3)cc2)c2ccccc2)C1` [Compound 11134, tert-butyl 3-(phenyl(4-(5-(trifluoromethyl)-1,3,4-oxadiazol-2-yl)benzyl)carbamoyl)azetidine-1-carboxylate], the “HDAC6 selectivity (fold)” value came out at 109 fold and the pIC50 is 6.04.

`CC(C)(C)OC(=O)N1CCC(C(=O)N(Cc2ccc(-c3nnc(C(F)(F)F)o3)cc2)c2ccccc2)CC1` [Compound 11135, tert-butyl 4-(phenyl(4-(5-(trifluoromethyl)-1,3,4-oxadiazol-2-yl)benzyl)carbamoyl)piperidine-1-carboxylate]: the “HDAC6 selectivity (fold)” value worked out at 36 fold and the pIC50 is 5.56.

As to `Cl.O=C(C1CNC1)N(Cc1ccc(-c2nnc(C(F)(F)F)o2)cc1)c1ccccc1` [Compound 11136, N-phenyl-N-(4-(5-(trifluoromethyl)-1,3,4-oxadiazol-2-yl)benzyl)azetidine-3-carboxamide hydrochloride], the “HDAC6 selectivity (fold)” value is on record as 493 fold and the pIC50 is 6.69.

On to `Cl.O=C(C1CCNCC1)N(Cc1ccc(-c2nnc(C(F)(F)F)o2)cc1)c1ccccc1` [Compound 11137, N-phenyl-N-(4-(5-(trifluoromethyl)-1,3,4-oxadiazol-2-yl)benzyl)piperidine-4-carboxamide hydrochloride], for which the “HDAC6 selectivity (fold)” value was 275 fold and the pIC50 is 6.44.

For the compound `CN1CC(C(=O)N(Cc2ccc(-c3nnc(C(F)(F)F)o3)cc2)c2ccccc2)C1` [Compound 11138, 1-methyl-N-phenyl-N-(4-(5-(trifluoromethyl)-1,3,4-oxadiazol-2-yl)benzyl)azetidine-3-carboxamide], the “HDAC6 selectivity (fold)” value was 351 fold and the pIC50 was 6.55.

Take `CCN1CC(C(=O)N(Cc2ccc(-c3nnc(C(F)(F)F)o3)cc2)c2ccccc2)C1` [Compound 11139, 1-ethyl-N-phenyl-N-(4-(5-(trifluoromethyl)-1,3,4-oxadiazol-2-yl)benzyl)azetidine-3-carboxamide]: the “HDAC6 selectivity (fold)” value came to 775 fold and the pIC50 was 6.89.

Regarding `CN1CCC(C(=O)N(Cc2ccc(-c3nnc(C(F)(F)F)o3)cc2)c2ccccc2)CC1` [Compound 11140, 1-methyl-N-phenyl-N-(4-(5-(trifluoromethyl)-1,3,4-oxadiazol-2-yl)benzyl)piperidine-4-carboxamide], the “HDAC6 selectivity (fold)” value is 478 fold and the pIC50 was 6.68.

In the case of `CCN1CCC(C(=O)N(Cc2ccc(-c3nnc(C(F)(F)F)o3)cc2)c2ccccc2)CC1` [Compound 11141, 1-ethyl-N-phenyl-N-(4-(5-(trifluoromethyl)-1,3,4-oxadiazol-2-yl)benzyl)piperidine-4-carboxamide], the “HDAC6 selectivity (fold)” value was found to be 306 fold and the pIC50 was 6.49.

Consider `CC(C)N1CC(C(=O)N(Cc2ccc(-c3nnc(C(F)(F)F)o3)cc2)c2ccccc2)C1` [Compound 11142, 1-isopropyl-N-phenyl-N-(4-(5-(trifluoromethyl)-1,3,4-oxadiazol-2-yl)benzyl)azetidine-3-carboxamide], for which the “HDAC6 selectivity (fold)” value is 303 fold and the pIC50 was 6.48.

With `CC(C)N1CCC(C(=O)N(Cc2ccc(-c3nnc(C(F)(F)F)o3)cc2)c2ccccc2)CC1` [Compound 11143, 1-isopropyl-N-phenyl-N-(4-(5-(trifluoromethyl)-1,3,4-oxadiazol-2-yl)benzyl)piperidine-4-carboxamide], the “HDAC6 selectivity (fold)” value is recorded as 452 fold and the negative logarithm of the IC50 (pIC50) was 6.66.

`CCC(=O)N1CC(C(=O)N(Cc2ccc(-c3nnc(C(F)(F)F)o3)cc2)c2ccccc2)C1` [Compound 11157, N-phenyl-1-propionyl-N-(4-(5-(trifluoromethyl)-1,3,4-oxadiazol-2-yl)benzyl)azetidine-3-carboxamide]: the “HDAC6 selectivity (fold)” value was found to be 1111 fold and the pIC50 was 7.05.

In the case of `CC(C)C(=O)N1CC(C(=O)N(Cc2ccc(-c3nnc(C(F)(F)F)o3)cc2)c2ccccc2)C1` [Compound 11158, 1-isobutyryl-N-phenyl-N-(4-(5-(trifluoromethyl)-1,3,4-oxadiazol-2-yl)benzyl)azetidine-3-carboxamide], the “HDAC6 selectivity (fold)” value was found to be 1111 fold and the pIC50 was 7.05.

As to `O=C(C1CN(C(=O)C(F)(F)F)C1)N(Cc1ccc(-c2nnc(C(F)(F)F)o2)cc1)c1ccccc1` [Compound 11159, N-phenyl-1-(2,2,2-trifluoroacetyl)-N-(4-(5-(trifluoromethyl)-1,3,4-oxadiazol-2-yl)benzyl)azetidine-3-carboxamide], the “HDAC6 selectivity (fold)” value amounted to 787 fold and the pIC50 is 6.90.

Regarding `CS(=O)(=O)N1CC(C(=O)N(Cc2ccc(-c3nnc(C(F)(F)F)o3)cc2)c2ccccc2)C1` [Compound 11160, 1-(methylsulfonyl)-N-phenyl-N-(4-(5-(trifluoromethyl)-1,3,4-oxadiazol-2-yl)benzyl)azetidine-3-carboxamide], the “HDAC6 selectivity (fold)” value is 606 fold and the pIC50 is 6.78.

(Values after patent US10584117B2, “1,3,4-oxadiazole amide derivative compound as histone deacetylase 6 inhibitor, and pharmaceutical composition containing same” (Chong Kun Dang Pharmaceutical Corp., priority 2015, dated 2020).)
